Assay results: patent US20250019376A1, “CHROMANE AMIDINE MONOBACTAM ANTIBIOTICS” (priority 2021, published 2025)

Key:
Details in all cases: lowest concentration inhibiting 95% of growth (OD600); with BLi relebactam 4 μg/mL; 22 hours, 35±2° C.
[1] = test system: Pseudomonas aeruginosa expressing AmpC (CL5701); assay: Growth inhibitory concentration (OD600), P. aeruginosa CL5701; assay type: cell-based
Method: (§1) The concentrations of compounds required to inhibit the growth of various strains of bacteria were determined in an assay that assessed bacterial growth by measuring optical density at 600 nm (OD600). The bacterial strains tested included the clinical strains Escherichia co/i expressing NDM-1 (CLB30016), Klebsiella pneumoniae expressing KPC-1 (CL6569), Acinetobacter baumannii expressing TEM-1, AmpC, and Oxa-24/40 (CL6188) and Pseudomonas aeruginosa expressing AmpC (CL5701). All compounds were tested in the presence of a f3 lactamase inhibitor (BLi, Relebactam) in 384-well microplates.
(§2) The clinical strains were stored as frozen single use stocks, thawed and diluted into 1.1× cation-adjusted Mueller-Hinton 11 broth to achieve approximately 2×10^5 CFU/mL. Test compounds were dissolved in DMSO and diluted 1:50 in the assay, resulting in a final concentration range of 100 μM to 0.098 μM. On the day of the assay, 1 μL of test compound was added to the plate followed by 4 μL of 50 μg/mL BLi in MOPS buffer and 45 μL of diluted bacteria. Plates were centrifuged at 1000 rpm for 30 seconds, shaken at approximately 800 rpm for 1 minute, and incubated at 35±2° C. for 22 hours. The concentration of BLi used in the assay was 4 μg/mL. At the end of the incubation, absorbance at 600 nm was determined using a spectrophotometer. Inhibition was quantitated by identifying the lowest concentration of test compound that was required to inhibit […] of the growth of the bacteria.

[2] = test system: Acinetobacter baumannii expressing TEM-1, AmpC, and Oxa-24/40 (CL6188); assay type: cell-based
Method: as §1, §2

[3] = test system: Escherichia co/i expressing NDM-1 (CLB30016); assay: Growth inhibitory concentration (OD600), E. coli CLB30016; assay type: cell-based, Escherichia coli
Method: as §1, §2

[4] = test system: Klebsiella pneumoniae expressing KPC-1 (CL6569); assay: Growth inhibitory concentration (OD600), K. pneumoniae CL6569; assay type: cell-based
Method: as §1, §2

Row | Structure (SMILES) | PA_CL5701 MITC95 [1] [µM] | AB_CL6188 MITC95 [2] [µM] | EC_CLB30016 MITC95 [3] [µM] | KP_CL6569 MITC95 [4] [µM]
1 | CC1(C)[C@H](NC(=O)/C(=N\O[C@](C)(C(=O)O)[C@H]2CCc3cc(C(=N)N[C@H]4C[C@](CN)(CO)C4)ccc3O2)c2csc(N)n2)C(=O)N1OS(=O)(=O)O [Compound 78, (S)-2-((R)-6-(N-((1r,3R)-3-(aminomethyl)-3-(hydroxymethyl)cyclobutyl)carbamimidoyl)chroman-2-yl)-2-((((Z)-1-(2-aminothiazol-4-yl)-2-(((S)-2,2-dimethyl-4-oxo-1-(sulfooxy)azetidin-3-yl)amino)-2-oxoethylidene)amino)oxy)propanoic acid] | 1.563 | 4.688 | 6.25 | 0.3906
2 | COCc1c(C(=N)N[C@H]2C[C@@H](N)C2)ccc2c1CC[C@H]([C@](C)(O/N=C(\C(=O)N[C@@H]1C(=O)N(OS(=O)(=O)O)C1(C)C)c1csc(N)n1)C(=O)O)O2 [Compound 124, (S)-2-((R)-6-(N-((1s,3S)-3-aminocyclobutyl)carbamimidoyl)-5-(methoxymethyl)chroman-2-yl)-2-((((Z)-1-(2-aminothiazol-4-yl)-2-(((S)-2,2-dimethyl-4-oxo-1-(sulfooxy)azetidin-3-yl)amino)-2-oxoethylidene)amino)oxy)propanoic acid] |  | 12.5 | 50 | 1.563
3 | CC1(C)[C@H](NC(=O)/C(=N\O[C@](C)(C(=O)O)[C@H]2CCc3cc(C(=N)N[C@]4(C)CC[C@](N)(CO)CC4)ccc3O2)c2csc(N)n2)C(=O)N1OS(=O)(=O)O [Compound 135, (S)-2-((R)-6-(N-((1r,4R)-4-amino-4-(hydroxymethyl)-1-methylcyclohexyl)-carbamimidoyl)chroman-2-yl)-2-((((Z)-1-(2-aminothiazol-4-yl)-2-(((S)-2,2-dimethyl-4-oxo-1-(sulfooxy)azetidin-3-yl)amino)-2-oxoethylidene)amino)oxy)propanoic acid] | 3.125 | 12.5 |  | 0.7813
4 | COCC[C@]1(N)CC[C@H](NC(=N)c2ccc3c(c2)CC[C@H]([C@](C)(O/N=C(\C(=O)N[C@@H]2C(=O)N(OS(=O)(=O)O)C2(C)C)c2csc(N)n2)C(=O)O)O3)CC1 [Compound 64, (S)-2-((R)-6-(N-((1r,4R)-4-amino-4-(2-methoxyethyl)cyclohexyl)carbamimidoyl)chroman-2-yl)-2-((((Z)-1-(2-aminothiazol-4-yl)-2-(((S)-2,2-dimethyl-4-oxo-1-(sulfooxy)azetidin-3-yl)amino)-2-oxoethylidene)amino)oxy)propanoic acid] | 3.125 | 6.25 |  | 0.7813
5 | COC[C@]1(NC(=N)c2ccc3c(c2)CC[C@H]([C@](C)(O/N=C(\C(=O)N[C@@H]2C(=O)N(OS(=O)(=O)O)C2(C)C)c2csc(N)n2)C(=O)O)O3)CC[C@H](N)CC1 [Compound 127, (S)-2-((R)-6-(N-((1r,4R)-4-amino-1-(methoxymethyl)cyclohexyl)carbamimidoyl)chroman-2-yl)-2-((((Z)-1-(2-aminothiazol-4-yl)-2-(((S)-2,2-dimethyl-4-oxo-1-(sulfooxy)azetidin-3-yl)amino)-2-oxoethylidene)amino)oxy)propanoic acid] |  | 12.5 | 6.25 | 0.7813
6 | CC1(C)[C@H](NC(=O)/C(=N\O[C@](C)(C(=O)O)[C@H]2CCc3cc(C(=N)N[C@H]4C[C@@](N)(C[C@@H](O)CO)C4)ccc3O2)c2csc(N)n2)C(=O)N1OS(=O)(=O)O [Compound 95, (S)-2-((R)-6-(N-((1R,3R)-3-amino-3-((R)-2,3-dihydroxypropyl)cyclobutyl)carbamimidoyl)chroman-2-yl)-2-((((Z)-1-(2-aminothiazol-4-yl)-2-(((S)-2,2-dimethyl-4-oxo-1-(sulfooxy)azetidin-3-yl)amino)-2-oxoethylidene)amino)oxy)propanoic acid] |  | 6.25 | 6.25 | 0.3906
7 | CC1(C)[C@H](NC(=O)/C(=N\O[C@](C)(C(=O)O)[C@H]2CCc3cc(C(=N)N[C@H]4C[C@@]5(CCNC5)C4)ccc3O2)c2csc(N)n2)C(=O)N1OS(=O)(=O)O [Compound 23, (S)-2-((R)-6-(N-((2s,4R)-6-azaspiro[3.4]octan-2-yl)carbamimidoyl)chroman-2-yl)-2-((((Z)-1-(2-aminothiazol-4-yl)-2-(((S)-2,2-dimethyl-4-oxo-1-(sulfooxy)azetidin-3-yl)amino)-2-oxoethylidene)amino)oxy)propanoic acid] |  | 6.25 | 6.25 | 0.7813
8 | CC1(C)[C@H](NC(=O)/C(=N\O[C@](C)(C(=O)O)[C@H]2CCc3cc(C(=N)N[C@H]4C[C@H]5CC[C@@H](C4)N5)ccc3O2)c2csc(N)n2)C(=O)N1OS(=O)(=O)O [Compound 136, (S)-2-((R)-6-(N-((1R,3r,5S)-8-azabicyclo[3.2.1]octan-3-yl)carbamimidoyl)chroman-2-yl)-2-((((Z)-1-(2-aminothiazol-4-yl)-2-(((S)-2,2-dimethyl-4-oxo-1-(sulfooxy)azetidin-3-yl)amino)-2-oxoethylidene)amino)oxy)propanoic acid] | 1.563 | 6.25 |  | 0.7813
9 | COC[C@]1(NC(=N)c2ccc3c(c2)CC[C@H]([C@](C)(O/N=C(\C(=O)N[C@@H]2C(=O)N(OS(=O)(=O)O)C2(C)C)c2csc(N)n2)C(=O)O)O3)CC[C@@H](N)CC1 [Compound 126, (S)-2-((R)-6-(N-((1s,4S)-4-amino-1-(methoxymethyl)cyclohexyl)carbamimidoyl)chroman-2-yl)-2-((((Z)-1-(2-aminothiazol-4-yl)-2-(((S)-2,2-dimethyl-4-oxo-1-(sulfooxy)azetidin-3-yl)amino)-2-oxoethylidene)amino)oxy)propanoic acid] |  | 12.5 | 25 | 1.563
10 | CC1(C)[C@H](NC(=O)/C(=N\O[C@](C)(C(=O)O)[C@H]2CCc3cc(C(=N)N[C@H]4C[C@@H](N)C4)ccc3O2)c2csc(N)n2)C(=O)N1OS(=O)(=O)O [Compound 7, (S)-2-((R)-6-(N-((1 s,3 S)-3-aminocyclobutyl)carbamimidoyl)chroman-2-yl)-2-((((Z)-1-(2-aminothiazol-4-yl)-2-(((S)-2,2-dimenthyl-4-oxo-1-(sulfooxy)azetidin-3-yl)amino)-2-oxoethylidene)amino)oxy)propanoic acid] |  | 5.729 | 4.688 | 0.3906
11 | CC1(C)[C@H](NC(=O)/C(=N\O[C@](C)(C(=O)O)[C@H]2CCc3cc(C(=N)NC4CC5(CC(N)C5)C4)ccc3O2)c2csc(N)n2)C(=O)N1OS(=O)(=O)O (stereo partly drawn) [Compound 61, (S)-2-((R)-6-(N-((2R,4r,6R)-6-aminospiro[3.3]heptan-2-yl)carbamimidoyl)chroman-2-yl)-2-((((Z)-1-(2-aminothiazol-4-yl)-2-(((S)-2,2-dimethyl-4-oxo-1-(sulfooxy)azetidin-3-yl)amino)-2-oxoethylidene)amino)oxy)propanoic acid] | 1.563 | 6.25 |  | 0.3906
12 | CC1(C)[C@H](NC(=O)/C(=N\O[C@](C)(C(=O)O)[C@H]2CCc3cc(C(=N)NC4CC(N)(C[C@H](O)CO)C4)ccc3O2)c2csc(N)n2)C(=O)N1OS(=O)(=O)O (stereo partly drawn) [Compound 94, (S)-2-((R)-6-(N-((1S,3R)-3-amino-3-((S)-2,3-dihydroxypropyl)cyclobutyl)carbamimidoyl)chroman-2-yl)-2-((((Z)-1-(2-aminothiazol-4-yl)-2-(((S)-2,2-dimethyl-4-oxo-1-(sulfooxy)azetidin-3-yl)amino)-2-oxoethylidene)amino)oxy)propanoic acid] |  | 6.25 | 3.125 | 0.3906
13 | CC1(C)[C@H](NC(=O)/C(=N\O[C@](C)(C(=O)O)[C@H]2CCc3cc(C(=N)NC4CCC(N)(CO)CC4)ccc3O2)c2csc(N)n2)C(=O)N1OS(=O)(=O)O (stereo partly drawn) [Compound 70, (S)-2-((R)-6-(N-((1s,4S)-4-amino-4-(hydroxymethyl)cyclohexyl)carbamimidoyl)chroman-2-yl)-2-((((Z)-1-(2-aminothiazol-4-yl)-2-(((S)-2,2-dimethyl-4-oxo-1-(sulfooxy)azetidin-3-yl)amino)-2-oxoethylidene)amino)oxy)propanoic acid] |  | 4.688 |  | 0.293
